By pKi is commonly meant the Ki on a negative log10 scale, so that one unit is a factor of ten. What is called pIC50 is the negative decadic logarithm of the IC50, by convention in mol/L.

Our source for the Ki and IC50 values is US9376424B2, “Methods for treating post traumatic stress disorder” (AZEVAN PHARMACEUTICALS, INC., priority 2010, dated 2016).

pIC50, pKi: −log10 of the molar value.

For this assay, the target named is T1, human V1a receptor (Homo sapiens, UniProt P37288).
T1 construct: host or cells: CHO cells
T1 sequence (P37288 whole entry): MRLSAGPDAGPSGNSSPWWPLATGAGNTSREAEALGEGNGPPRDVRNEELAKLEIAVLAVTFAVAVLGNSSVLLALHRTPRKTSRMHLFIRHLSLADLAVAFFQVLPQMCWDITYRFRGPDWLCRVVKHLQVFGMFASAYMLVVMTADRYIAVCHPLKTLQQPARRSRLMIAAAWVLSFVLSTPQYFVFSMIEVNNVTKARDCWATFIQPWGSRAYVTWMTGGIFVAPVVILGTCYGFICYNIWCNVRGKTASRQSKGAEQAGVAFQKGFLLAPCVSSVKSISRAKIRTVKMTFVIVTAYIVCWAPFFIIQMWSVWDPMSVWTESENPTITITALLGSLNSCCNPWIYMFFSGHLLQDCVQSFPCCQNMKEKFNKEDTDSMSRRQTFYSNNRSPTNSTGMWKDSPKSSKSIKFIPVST
As to the kind of experiment: Inhibition of phosphatidylinositol turnover (V1a). It counts as cell-based. From the text: Inhibition of phosphatidylinositol turnover (V1a). The physiological effects of vasopressin are mediated through specific G-protein coupled receptors. The vasopressin V1a receptor is coupled to the Gq/G11 family of G proteins and mediates phosphatidylinositol turnover. The agonist or antagonist character of the compounds of the invention may be determined by their ability to inhibit vasopressin-mediated turnover of phosphatidylinositol by the procedure described in the following paragraphs.
Cell culture and labeling of cells. Three days prior to the assay, near-confluent cultures of hV1a or hV1b cells were dissociated and seeded in 6-well tissue culture plates, about 100 wells being seeded from each 75 cm^2 flask (equivalent to 12:1 split ratio). Each well contained 1 mL of growth medium with 2 μCi of [^3H]myo-inositol (American Radiolabeled Chemicals, St. Louis, Mo., USA).
Incubations (V1a and V1b). All assays were in triplicate except for basal and 10 nM AVP (both n=6). AVP ((arginine vasopressin), Peninsula Labs, Belmont, Calif., USA (#8103)) was dissolved in 0.1N acetic acid. Test agents were dissolved in DMSO and diluted in DMSO to 200 times the final test concentration. […] The order of incubations was randomized. Incubations were initiated by removing the prelabeling medium, washing the monolayer once with 1 mL of 0.9% NaCl, and transferring the contents of the assay tubes to corresponding wells. The plates were incubated for 1 hour at 37° C. Incubations were terminated by removing the incubation medium and adding 500 μL of ice cold 5% (w/v) trichloroacetic acid and allowing the wells to stand for 15 min.
Measurement of [^3H]inositol phosphates (V1a and V1b). BioRad Poly-Prep Econo-Columns were packed with 0.3 mL of AG 1×−8 100-200 formate form resin. Resin was mixed 1:1 with water and 0.6 mL added to each column. Columns were then washed with 10 mL water. Scintillation vials (20 mL) were placed under each column. For each well, the contents were transferred to a minicolumn, after which the well was washed with 0.5 mL distilled water, which was also added to the minicolumn. The columns were then washed twice with 5 mL of 5 mM myo-inositol to elute free inositol. Aliquots (1 mL) were transferred to 20 mL scintillation vials and 10 mL of Beckman Ready Protein Plus added. After the myo-inositol wash was complete, empty scintillation vials were placed under the columns, and [^3H]inositol phosphates were eluted with three additions of 1 mL 0.5 M ammonium formate containing 0.1 N formic acid. Elution conditions were optimized to recover inositol mono-, bis-, and trisphosphates, without eluting the more metabolically inert tetrakis-, pentakis-, and hexakis-phosphates. To each sample was added 10 mL of a high salt capacity scintillation fluid such as Tru-Count High Salt Capacity or Packard Hionic-Fluor. Inositol lipids were measured by adding 1 mL of 2% sodium dodecyl sulfate (SDS) to each well, allowing the wells to stand for at least 30 min., and transferring the solution to 20 mL scintillation vials, to which 10 mL Beckman Ready Protein Plus scintillation fluid was then added. Samples were counted in a Beckman LS 3801 liquid scintillation counter for 10 min. Total inositol incorporation for each well was calculated as the sum of free inositol, inositol phosphates, and inositol lipids.
Data analysis (V1a and V1b): concentration-inhibition experiments. Concentration-response curves for AVP and concentration-inhibition curves for test agents versus 10 nM AVP were analyzed by nonlinear least-squares curve-fitting to a 4-parameter logistic function. Parameters for basal and maximal inositol phosphates, EC50 or IC50, and Hill coefficient were varied to achieve the best fit. The curve-fitting was weighted under the assumption that the standard deviation was proportional to dpm of radioactivity. Full concentration-response curves for AVP were run in each experiment. […]

Consider `CN(Cc1cccc(C(F)(F)F)c1)C(=O)[C@@H](CC(=O)N1CCC(N2CCCCC2)CC1)N1C(=O)[C@@H](N2C(=O)OC[C@@H]2c2ccccc2)[C@H]1C=Cc1ccccc1` [Example 225, 2(R)-[[4-(Piperidinyl)piperidinyl]carbonylmethyl]-2-[3(S)-(4(S)-phenyloxazolidin-2-on-3-yl)-4(R)-(2-styryl)azetidin-2-on-1-yl]acetic acid N-methyl-N-(3-trifluoromethylbenzyl)amide], for which, where the note is “Cheng-Prusoff from IC50, hV1a cells, read-out: Ki, suppression of the action of AVP (inositol phosphates)”, the pKi is 10.30. Where the note is “versus 10 nM AVP, hV1a cells, read-out: IC50, suppression of the action of AVP (inositol phosphates)”, the pIC50 was 8.57.
